US12209102B2, “Heterocyclic compounds and uses thereof” (Kumquat Biosciences Inc., priority 2022, dated 2025)

Key:
Type in all cases: biochemical
K-Ras G12D = target: T1, K-Ras G12D (Homo sapiens, UniProt P01116, G12D); assay: HTRF resonance energy transfer assay, K-Ras G12D / SOS1 interaction; conditions: HTRF assay of Example 5; read-out: IC50 against K-Ras G12D
T1 construct: made in house; host or cells: E. coli BL21 (DE3)
Excerpt: This assay can be also used to assess a selective inhibition or reduction of signaling output of a mutant Ras protein relative to a wildtype, or relative to a different mutant Ras protein. For example, the equilibrium interaction of wildtype Kras or K-Ras mutant (e.g., wildtype or a mutant thereof) with SOS1 (e.g., hSOS1) can be assessed as a proxy or an indication for a subject compound's ability to bind and inhibit Ras protein. HTRF assay detects from (i) a fluorescence resonance energy transfer (FRET) donor (e.g., antiGST-Europium) that is bound to GST-tagged K-Ras mutant to (ii) a FRET acceptor (e.g., anti-6His-XL665) bound to a His-tagged hSOS1.
The assay buffer can contain˜5 mM HEPES pH 7.4, ˜150 mM NaCl, ˜ 1 mM DTT, 0.05% BSA and 0.0025%(v/v) Igepal. A Ras working solution is prepared in an assay buffer containing typically a suitable amount of the protein construct (e.g., GST-tagged K-Ras mutant) and the FRET donor (e.g., antiGST-Eu(K) from Cisbio, France). A SOS1 working solution is prepared in an assay buffer containing suitable amount of the protein construct (e.g., His-hSOS1) and the FRET acceptor (e.g., anti-6His-XL665 from Cisbio, France). A suitable amount of the protein construct will depend on the range of activity or range of IC50 values being detected or under investigation. For detecting IC50 within a range of 500 nM, the protein constructs of the same range of molarity can be utilized.
A fixed volume of DMSO with or without test compound is transferred into a 384-well plate. Ras working solution is added to all wells of the test plate. SOS1 working solution is added to all wells except for those that are subsequently filled the inhibitor control solution. Upon incubation for about 10 minutes or longer, the fluorescence is measured with a M1000Pro plate reader (Tecan) using HTRF detection (excitation 337 nm, emission 1: 620 nm, emission 2: 665 nm). Compounds are tested in duplicates at different concentrations (for example, 10 μM, 2.5 μM, 0.63 μM, 0.16 μM, 0.04 μM, 0.01 μM test compound). The ratiometric data (i.e., emission 2 divided by emission 1) is used to calculate IC50 values against Ras using GraphPad Prism (GraphPad software). Following this general procedure, samples were tested with or without a subject compound disclosed herein including compounds exemplified in Table 1 to assess their abilities to inhibit a K-Ras mutant relative to another mutant or WT. Signaling output measured in terms of IC50 values can be obtained, a ratio of IC50 against one mutant relative to another mutant can be calculated. For instance, a selective reduction of K-Ras G12D signaling output can be evidenced by a ratio greater than one. In particular, a selective reduction of K-Ras G12D signaling relative to K-Ras WT signaling is evidenced as the ratio of IC50 (against K-Ras WT) to IC50 (against K-Ras G12D) is greater than 1.

K-Ras G12S = target: T2, K-Ras G12S (Homo sapiens, UniProt P01116, G12S); assay: HTRF resonance energy transfer assay, K-Ras G12S / SOS1 interaction; conditions: HTRF assay of Example 5; read-out: IC50 against K-Ras G12S
T2 construct: made in house; host or cells: E. coli BL21 (DE3)
T2 sequence (P01116 1-188 isoform P01116-2 G12S): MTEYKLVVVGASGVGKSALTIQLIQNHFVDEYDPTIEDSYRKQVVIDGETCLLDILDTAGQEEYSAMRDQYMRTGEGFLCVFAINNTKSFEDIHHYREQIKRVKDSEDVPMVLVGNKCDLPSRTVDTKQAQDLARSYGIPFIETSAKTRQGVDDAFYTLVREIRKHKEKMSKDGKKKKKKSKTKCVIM
How it was run: (§1)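 Compounds, tested in duplicate at 10 μM down to 0.01 μM, were read after about 10 min or more by HTRF as the 665/620 nm emission ratio (337 nm excitation) to derive IC50. This ratio reports FRET between an anti-GST-Eu donor on GST-K-Ras (wild-type or mutant) and an anti-6His-XL665 acceptor on His-hSOS1. Buffer: ~5 mM HEPES pH 7.4, 150 mM NaCl, 1 mM DTT, 0.05% BSA, 0.0025% Igepal.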

K-Ras G12V = target: T3, K-Ras G12V (Homo sapiens, UniProt P01116, G12V); assay: HTRF resonance energy transfer assay, K-Ras G12V / SOS1 interaction; conditions: HTRF assay of Example 5; read-out: IC50 against K-Ras G12V
T3 construct: made in house; host or cells: E. coli BL21 (DE3)
T3 sequence (P01116 1-188 isoform P01116-2 G12V): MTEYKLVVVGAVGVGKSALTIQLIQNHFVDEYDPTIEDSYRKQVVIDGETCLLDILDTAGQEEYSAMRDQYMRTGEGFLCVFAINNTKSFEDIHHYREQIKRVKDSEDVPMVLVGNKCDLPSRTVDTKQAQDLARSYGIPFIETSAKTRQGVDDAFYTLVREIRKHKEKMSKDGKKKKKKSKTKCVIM
How it was run: as §1

K-Ras WT = target: T4, K-Ras WT (Homo sapiens, UniProt P01116); assay: HTRF resonance energy transfer assay, K-Ras WT / SOS1 interaction; conditions: HTRF assay of Example 5; read-out: IC50 against K-Ras WT
T4 construct: made in house; host or cells: E. coli BL21 (DE3)
T4 sequence (P01116 1-188 isoform P01116-2): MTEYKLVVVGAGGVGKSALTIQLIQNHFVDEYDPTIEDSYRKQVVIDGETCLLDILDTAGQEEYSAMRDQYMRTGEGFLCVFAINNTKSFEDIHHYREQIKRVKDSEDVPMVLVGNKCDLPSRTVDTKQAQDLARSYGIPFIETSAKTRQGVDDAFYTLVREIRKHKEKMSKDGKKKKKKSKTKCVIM
How it was run: as §1

T1 sequence (P01116 1-188 isoform P01116-2 G12D): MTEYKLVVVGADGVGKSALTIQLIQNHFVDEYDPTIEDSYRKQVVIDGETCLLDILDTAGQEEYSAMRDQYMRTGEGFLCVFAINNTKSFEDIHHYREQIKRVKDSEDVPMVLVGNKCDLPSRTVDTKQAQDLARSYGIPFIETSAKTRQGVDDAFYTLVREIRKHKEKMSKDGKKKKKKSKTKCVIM

| IC50 (K-Ras G12D) [µM] | IC50 (K-Ras G12S) [µM] | IC50 (K-Ras G12V) [µM] | IC50 (K-Ras WT) [µM] | Compound |
| --- | --- | --- | --- | --- |
| < 0.1 | < 0.1 | < 0.1 | < 0.1 | C/C=C\[C@H]1COc2c(Cl)c(-c3ccc(F)c4sc(N)c(C#N)c34)c(F)c3nc(OC[C@@]45CCCN4C[C@H](F)C5)nc(c23)N1CC(F)F [Compound 1032, 2-amino-4-((5S)-8-chloro-4-(2,2-difluoroethyl)-10-fluoro-2-(((2R,7aS)-2-fluorotetrahydro-1H-pyrrolizin-7a(5H)-yl)methoxy)-5-((Z)-prop-1-en-1-yl)-5,6-dihydro-4H-[1,4]oxazepino[5,6,7-de]quinazolin-9-yl)-7-fluorobenzo[b]thiophene-3-carbonitrile] |
| < 0.1 | < 0.1 | < 0.1 | < 0.1 | CC(O)C1COc2c(Cl)c(-c3ccc(F)c4sc(N)c(C#N)c34)c(F)c3nc(OC[C@@]45CCCN4C[C@H](F)C5)nc(c23)N1CC1(N(C)C)CCC1 (stereo partly drawn) [Compound 773, 2-amino-4-(8-chloro-4-((1-(dimethylamino)cyclobutyl)methyl)-10-fluoro-2-(((2R,7aS)-2-fluorotetrahydro-1H-pyrrolizin-7a(5H)-yl)methoxy)-5-(1-hydroxyethyl)-5,6-dihydro-4H-[1,4]oxazepino[5,6,7-de]quinazolin-9-yl)-7-fluorobenzo[b]thiophene-3-carbonitrile] |
| < 0.1 | < 0.1 | < 0.1 | < 0.1 | C#Cc1c(F)ccc2cc(O)cc(-c3nc4c5c(nc(OC[C@@]67CCCN6C[C@H](F)C7)nc5c3F)N(C3CCN(C=O)C3)CCO4)c12 (stereo partly drawn) [Compound 1019, 3-(5-(8-ethynyl-7-fluoro-3-hydroxynaphthalen-1-yl)-4-fluoro-2-(((2R,7aS)-2-fluorotetrahydro-1H-pyrrolizin-7a(5H)-yl)methoxy)-8,9-dihydro-10H-7-oxa-1,3,6,10-tetraazacyclohepta[de]naphthalen-10-yl)pyrrolidine-1-carbaldehyde] |
| < 0.1 | < 0.1 | < 0.1 | < 0.1 | N#Cc1c(N)sc2c(F)ccc(-c3c(Cl)c4c5c(nc(OC[C@@]67CCCN6C[C@H](F)C7)nc5c3F)N(C3CNC3)CCO4)c12 [Compound 828, 2-amino-4-(4-(azetidin-3-yl)-8-chloro-10-fluoro-2-(((2R,7aS)-2-fluorotetrahydro-1H-pyrrolizin-7a(5H)-yl)methoxy)-5,6-dihydro-4H-[1,4]oxazepino[5,6,7-de]quinazolin-9-yl)-7-fluorobenzo[b]thiophene-3-carbonitrile] |
| < 0.1 | < 0.1 | < 0.1 | < 0.1 | CNCCCN1CCOc2c(Cl)c(-c3ccc(F)c4sc(N)c(C#N)c34)c(F)c3nc(OC[C@@]45CCCN4C[C@H](F)C5)nc1c23 [Compound 778, 2-amino-4-(8-chloro-10-fluoro-2-(((2R,7aS)-2-fluorotetrahydro-1H-pyrrolizin-7a(5H)-yl)methoxy)-4-(3-(methylamino)propyl)-5,6-dihydro-4H-[1,4]oxazepino[5,6,7-de]quinazolin-9-yl)-7-fluorobenzo[b]thiophene-3-carbonitrile] |
| < 0.1 | < 0.1 | < 0.1 | < 0.1 | N#Cc1c(N)sc2c(F)ccc(-c3c(Cl)c4c5c(nc(OC[C@@]67CCCN6C[C@H](F)C7)nc5c3F)N(C3CCNCC3)CCO4)c12 [Compound 760, 2-amino-4-(8-chloro-10-fluoro-2-(((2R,7aS)-2-fluorotetrahydro-1H-pyrrolizin-7a(5H)-yl)methoxy)-4-(piperidin-4-yl)-5,6-dihydro-4H-[1,4]oxazepino[5,6,7-de]quinazolin-9-yl)-7-fluorobenzo[b]thiophene-3-carbonitrile] |
| < 0.1 | < 0.1 | < 0.1 | < 0.1 | C[C@H](Oc1nc2c3c(c(Cl)c(-c4ccc(F)c5sc(N)c(C#N)c45)c(F)c3n1)OCCN2C1CC2(CNC2)C1)[C@@H]1CCCN1C [Compound 856, 2-amino-4-(8-chloro-10-fluoro-2-((S)-1-((S)-1-methylpyrrolidin-2-yl)ethoxy)-4-(2-azaspiro[3.3]heptan-6-yl)-5,6-dihydro-4H-[1,4]oxazepino[5,6,7-de]quinazolin-9-yl)-7-fluorobenzo[b]thiophene-3-carbonitrile] |
| < 0.1 | < 0.1 | < 0.1 | < 0.1 | CC1Oc2c(Cl)c(-c3ccc(F)c4sc(N)c(C#N)c34)c(F)c3nc(OC[C@@]45CCCN4C[C@H](F)C5)nc(c23)N(CC(F)F)C1CC#N (stereo partly drawn) [Compound 968, 2-amino-4-(8-chloro-5-(cyanomethyl)-4-(2,2-difluoroethyl)-10-fluoro-2-(((2R,7aS)-2-fluorotetrahydro-1H-pyrrolizin-7a(5H)-yl)methoxy)-6-methyl-5,6-dihydro-4H-[1,4]oxazepino[5,6,7-de]quinazolin-9-yl)-7-fluorobenzo[b]thiophene-3-carbonitrile] |
| < 0.1 | < 0.1 | < 0.1 | < 0.1 | N#Cc1c(N)sc2c(F)ccc(-c3c(Cl)c4c5c(nc(OC[C@@]67CCCN6C[C@H](F)C7)nc5c3F)N(CC(F)F)[C@@H](C3CC(C#N)C3)CO4)c12 (stereo partly drawn) [Compound 753, 2-amino-4-((S)-8-chloro-5-(3-cyanocyclobutyl)-4-(2,2-difluoroethyl)-10-fluoro-2-(((2R,7aS)-2-fluorotetrahydro-1H-pyrrolizin-7a(5H)-yl)methoxy)-5,6-dihydro-4H-[1,4]oxazepino[5,6,7-de]quinazolin-9-yl)-7-fluorobenzo[b]thiophene-3-carbonitrile] |
| < 0.1 | < 0.1 | < 0.1 | < 0.1 | C#C[C@H]1COc2c(Cl)c(-c3ccc(F)c4sc(N)c(C#N)c34)c(F)c3nc(OC[C@@]45CCCN4C[C@H](F)C5)nc(c23)N1CC(F)F [Compound 1075, 2-amino-4-((5S)-8-chloro-4-(2,2-difluoroethyl)-5-ethynyl-10-fluoro-2-(((2R,7aS)-2-fluorotetrahydro-1H-pyrrolizin-7a(5H)-yl)methoxy)-5,6-dihydro-4H-[1,4]oxazepino[5,6,7-de]quinazolin-9-yl)-7-fluorobenzo[b]thiophene-3-carbonitrile] |
| < 0.1 | < 0.1 | < 0.1 | < 0.1 | N#CCC1COc2c(Cl)c(-c3ccc(F)c4sc(N)c(C#N)c34)c(F)c3nc(OC[C@@]45CCCN4C[C@H](F)C5)nc(c23)N1CCCN (stereo partly drawn) [Compound 1029, 2-amino-4-(4-(3-aminopropyl)-8-chloro-5-(cyanomethyl)-10-fluoro-2-(((2R,7aS)-2-fluorotetrahydro-1H-pyrrolizin-7a(5H)-yl)methoxy)-5,6-dihydro-4H-[1,4]oxazepino[5,6,7-de]quinazolin-9-yl)-7-fluorobenzo[b]thiophene-3-carbonitrile] |
| < 0.1 | < 0.1 | < 0.1 | < 0.1 | C=C(C(F)F)[C@H]1COc2c(Cl)c(-c3ccc(F)c4sc(N)c(C#N)c34)c(F)c3nc(OC[C@@]45CCCN4C[C@H](F)C5)nc(c23)N1CC(F)F (single isomer, unassigned) [Compound 629] |
